Measured values taken from US20100113510A1 (priority 2006, published 2010).

Target: T1, human muscarinic acetylcholine M3 receptor (M3-ACh) (Homo sapiens, UniProt P20309)
T1 construct: expressed in transfected cells; host or cells: CHO-K1 (Chinese Hamster Ovary) cell membranes
Experiment: biochemical
Assay type: binding
Settings: pIC50 (M3 Binding IC50 classes)

T1 sequence (P20309 whole entry): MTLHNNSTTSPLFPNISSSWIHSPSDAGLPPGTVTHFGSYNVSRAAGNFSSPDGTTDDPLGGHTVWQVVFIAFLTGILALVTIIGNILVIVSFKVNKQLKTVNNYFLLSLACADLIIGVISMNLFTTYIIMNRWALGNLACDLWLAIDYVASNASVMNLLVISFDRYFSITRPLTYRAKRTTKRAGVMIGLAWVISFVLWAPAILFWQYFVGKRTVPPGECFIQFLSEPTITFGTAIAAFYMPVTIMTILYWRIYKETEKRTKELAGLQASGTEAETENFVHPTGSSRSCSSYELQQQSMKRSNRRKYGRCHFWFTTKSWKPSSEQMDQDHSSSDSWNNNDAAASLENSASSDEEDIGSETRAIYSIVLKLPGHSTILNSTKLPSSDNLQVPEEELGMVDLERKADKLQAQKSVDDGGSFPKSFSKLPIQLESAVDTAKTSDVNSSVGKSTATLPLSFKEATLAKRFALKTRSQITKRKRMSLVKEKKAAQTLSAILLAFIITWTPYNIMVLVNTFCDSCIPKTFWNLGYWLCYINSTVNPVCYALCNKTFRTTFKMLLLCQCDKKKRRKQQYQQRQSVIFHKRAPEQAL

CC(C(=O)O[C@H]1C[N+]2(CC(=O)Nc3ccc(Cl)nn3)CCC1CC2)(c1cccs1)N1CCCCC1 (single isomer, unassigned) [Example 72]
IC50: < 2 nM

CC(C(=O)O[C@H]1C[N+]2(CCOCc3ccc(Cl)cc3)CCC1CC2)(c1ccccc1)N1CCSCC1 (single isomer, unassigned) [Example 108]
IC50: 2 to 10 nM

C[C@@](C(=O)O[C@H]1C[N+]2(CC[C@@H](O)c3ccccc3)CCC1CC2)(c1ccccc1)N1CCCCC1 [Example 39]
IC50: < 2 nM

CC(C(=O)O[C@H]1C[N+]2(CCc3cccc(Cl)c3)CCC1CC2)(c1cccs1)N1CCSCC1 (single isomer, unassigned) [Example 52]
IC50: < 2 nM

CC(C(=O)O[C@H]1C[N+]2(Cc3cc(-c4ccccc4)no3)CCC1CC2)(c1cccs1)N1CCSCC1 (single isomer, unassigned) [Example 55]
IC50: 2 to 10 nM

CC(C(=O)O[C@H]1C[N+]2(CCc3cccc(Cl)c3)CCC1CC2)(c1ccccc1)N1CCOCC1 (single isomer, unassigned) [Example 80]
IC50: 2 to 10 nM

C[C@@](C(=O)O[C@H]1C[N+]2(CC(=O)Nc3ccc(C#N)cc3)CCC1CC2)(c1ccccc1)N1CCCCC1 [Example 11, (3R)-1-{2-[(4-Cyanophenyl)amino]-2-oxoethyl}-3-{[(2S)-2-phenyl-2-piperidin-1-ylpropanoyl]oxy}-1-azoniabicyclo[2.2.2]octane chloride]
IC50: 2 to 10 nM

C[C@@](C(=O)O[C@H]1C[N+]2(CC(=O)NCc3ccccc3)CCC1CC2)(c1ccccc1)N1CCCCC1 [Example 16, (3R)-1-[2-(Benzylamino)-2-oxoethyl]-3-{[(2S)-2-phenyl-2-piperidin-1-ylpropanoyl]oxy}-1-azoniabicyclo[2.2.2]octane chloride]
IC50: 2 to 10 nM

CC(C(=O)O[C@H]1C[N+]2(CCCc3ccccc3)CCC1CC2)(c1ccccc1)N1CCSCC1 (single isomer, unassigned) [Example 105]
IC50: 2 to 10 nM

CC(C(=O)O[C@H]1C[N+]2(CCCOc3ccccc3)CCC1CC2)(c1ccccc1)N1CCSCC1 (single isomer, unassigned) [Example 107]
IC50: < 2 nM

CC(C(=O)O[C@H]1C[N+]2(CC(=O)Nc3ccccc3)CCC1CC2)(c1ccccc1)N1CCCCCC1 (single isomer, unassigned) [Example 89]
IC50: < 2 nM

CC(C(=O)O[C@H]1C[N+]2(Cc3nc4ccccc4s3)CCC1CC2)(c1cccs1)N1CCCCC1 (single isomer, unassigned) [Example 75]
IC50: < 2 nM

CC(C(=O)O[C@H]1C[N+]2(CCc3cccc(Cl)c3)CCC1CC2)(c1ccccc1)N1CCSCC1 (single isomer, unassigned) [Example 99]
IC50: 2 to 10 nM

CC(C(=O)O[C@H]1C[N+]2(CCc3ccccc3)CCC1CC2)(c1ccccc1)N1CCCCCC1 (single isomer, unassigned) [Example 93]
IC50: < 2 nM

C[C@@](C(=O)O[C@H]1C[N+]2(CC(=O)c3ccccc3)CCC1CC2)(c1ccccc1)N1CCCCC1 [Example 9, (3R)-l-(2-Oxo-2-phenylethyl)-3-{[(2S)-2-phenyl-2-piperidin-1-ylpropanoyl]oxy}-1-azoniabicyclo[2.2.2]octane bromide]
IC50: < 2 nM

CC(C(=O)O[C@H]1C[N+]2(CC(=O)Nc3cccc(F)c3)CCC1CC2)(c1cccs1)N1CCSCC1 (single isomer, unassigned) [Example 53]
IC50: < 2 nM
